Reference: ChEMBL document CHEMBL3885881, “DrugMatrix”

Organism: Rattus norvegicus
Assay: DrugMatrix - Regimen: Daily Repeat
Format: toxicity, organism-based, Sprague-Dawley
Parameters: regimen Daily Repeat, gender Male, age 6-8 weeks
Settings: in vivo, po, route oral GAVAGE, vehicle .5 % CMC; for ABSOLUTE BASOPHIL / ABSOLUTE EOSINOPHIL / ABSOLUTE LYMPHOCYTE / ABSOLUTE MONOCYTE / ABSOLUTE SEGMENTED NEUTROPHIL / BASOPHIL / EOSINOPHIL / ERYTHROCYTE COUNT / HEMATOCRIT / HEMOGLOBIN / LEUKOCYTE COUNT / LYMPHOCYTE / MEAN CORPUSCULAR HEMOGLOBIN / MEAN CORPUSCULAR HEMOGLOBIN CONCENTRATION / MEAN CORPUSCULAR VOLUME / MONOCYTE / NEUTROPHIL / NUCLEATED RED BLOOD CELLS / PLATELET COUNT: tissue Blood; for ALANINE AMINOTRANSFERASE / ALBUMIN / ALKALINE PHOSPHATASE / ASPARTATE AMINOTRANSFERASE / BLOOD UREA NITROGEN / CARBON DIOXIDE / CHLORIDE / CHOLESTEROL / CREATINE PHOSPHOKINASE / CREATININE / GLUCOSE / LACTATE DEHYDROGENASE / LIPASE / PHOSPHORUS / POTASSIUM / SODIUM / TOTAL BILIRUBIN / TOTAL PROTEIN / URIC ACID: tissue Plasma
[1] = 50 mg/kg, 120 h, dose level Low, time 5 day
[2] = 500 mg/kg, 72 h, dose level High, time 3 day
[3] = 500 mg/kg, 120 h, dose level High, time 5 day

## CC1(C)[C@H]2CC[C@]1(C)C(=O)C2 [(-)-CAMPHOR]
[1]
  ABSOLUTE BASOPHIL: 0 CELLS/uL
  ABSOLUTE EOSINOPHIL: 46.67 CELLS/uL
  ABSOLUTE LYMPHOCYTE: 13460 CELLS/uL
  ABSOLUTE MONOCYTE: 0 CELLS/uL
  ABSOLUTE SEGMENTED NEUTROPHIL: 2360 CELLS/uL
  BASOPHIL: 0%
  EOSINOPHIL: 0.33%
  ERYTHROCYTE COUNT: 5.24 x10E6/uL
  HEMATOCRIT: 32.6%
  HEMOGLOBIN: 12.5 G/DL
  LEUKOCYTE COUNT: 15.87 x10E3/uL
  LYMPHOCYTE: 86.33%
  MEAN CORPUSCULAR HEMOGLOBIN: 23.9 pg
  MEAN CORPUSCULAR HEMOGLOBIN CONCENTRATION: 38.33 G/DL
  MEAN CORPUSCULAR VOLUME: 62.27 fL
  MONOCYTE: 0%
  NEUTROPHIL: 13.33%
  NUCLEATED RED BLOOD CELLS: 0 /100WBC
  PLATELET COUNT: 1253.67 x10E3/uL
  ALANINE AMINOTRANSFERASE: 61.33 u/L
  ALBUMIN: 4.37 G/DL
  ALKALINE PHOSPHATASE: 416.33 u/L
  ASPARTATE AMINOTRANSFERASE: 88.33 u/L
  BLOOD UREA NITROGEN: 18.67 mg/dL
  CARBON DIOXIDE: 22.67 mmol/L
  CHLORIDE: 102.67 MEQ/L
  CHOLESTEROL: 64.33 mg/dL
  CREATINE PHOSPHOKINASE: 328 u/L
  CREATININE: 0.25 mg/dL
  GLUCOSE: 194.33 mg/dL
  LACTATE DEHYDROGENASE: 167.67 u/L
  LIPASE: 9 u/L
  PHOSPHORUS: 12.53 mg/dL
  POTASSIUM: 6.26 MEQ/L
  SODIUM: 143.3 MEQ/L
  TOTAL BILIRUBIN: 0.17 mg/dL
  TOTAL PROTEIN: 6.13 G/DL
  URIC ACID: 2.63 mg/dL
[2]
  ABSOLUTE BASOPHIL: 0 CELLS/uL
  ABSOLUTE EOSINOPHIL: 155.67 CELLS/uL
  ABSOLUTE LYMPHOCYTE: 12828.67 CELLS/uL
  ABSOLUTE MONOCYTE: 0 CELLS/uL
  ABSOLUTE SEGMENTED NEUTROPHIL: 1649 CELLS/uL
  BASOPHIL: 0%
  EOSINOPHIL: 1%
  ERYTHROCYTE COUNT: 5.48 x10E6/uL
  HEMATOCRIT: 34.93%
  HEMOGLOBIN: 13.23 G/DL
  LEUKOCYTE COUNT: 14.63 x10E3/uL
  LYMPHOCYTE: 88.33%
  MEAN CORPUSCULAR HEMOGLOBIN: 24.13 pg
  MEAN CORPUSCULAR HEMOGLOBIN CONCENTRATION: 37.9 G/DL
  MEAN CORPUSCULAR VOLUME: 63.7 fL
  MONOCYTE: 0%
  NEUTROPHIL: 10.67%
  NUCLEATED RED BLOOD CELLS: 0 /100WBC
  PLATELET COUNT: 1178.33 x10E3/uL
  ALANINE AMINOTRANSFERASE: 50.67 u/L
  ALBUMIN: 4.3 G/DL
  ALKALINE PHOSPHATASE: 369.33 u/L
  ASPARTATE AMINOTRANSFERASE: 74.67 u/L
  BLOOD UREA NITROGEN: 14 mg/dL
  CARBON DIOXIDE: 26.67 mmol/L
  CHLORIDE: 100.33 MEQ/L
  CHOLESTEROL: 67.67 mg/dL
  CREATINE PHOSPHOKINASE: 382.33 u/L
  CREATININE: 0.15 mg/dL
  GLUCOSE: 154 mg/dL
  LACTATE DEHYDROGENASE: 99 u/L
  LIPASE: 9 u/L
  PHOSPHORUS: 12.53 mg/dL
  POTASSIUM: 6.1 MEQ/L
  SODIUM: 145.07 MEQ/L
  TOTAL BILIRUBIN: 0.2 mg/dL
  TOTAL PROTEIN: 5.93 G/DL
  URIC ACID: 1.47 mg/dL
[3]
  ABSOLUTE BASOPHIL: 0 CELLS/uL
  ABSOLUTE EOSINOPHIL: 124.33 CELLS/uL
  ABSOLUTE LYMPHOCYTE: 12652.67 CELLS/uL
  ABSOLUTE MONOCYTE: 0 CELLS/uL
  ABSOLUTE SEGMENTED NEUTROPHIL: 1356.33 CELLS/uL
  BASOPHIL: 0%
  EOSINOPHIL: 1%
  ERYTHROCYTE COUNT: 5.72 x10E6/uL
  HEMATOCRIT: 37.43%
  HEMOGLOBIN: 14.2 G/DL
  LEUKOCYTE COUNT: 14.13 x10E3/uL
  LYMPHOCYTE: 89.67%
  MEAN CORPUSCULAR HEMOGLOBIN: 24.83 pg
  MEAN CORPUSCULAR HEMOGLOBIN CONCENTRATION: 37.93 G/DL
  MEAN CORPUSCULAR VOLUME: 65.4 fL
  MONOCYTE: 0%
  NEUTROPHIL: 9.33%
  NUCLEATED RED BLOOD CELLS: 0 /100WBC
  PLATELET COUNT: 1132 x10E3/uL
  ALANINE AMINOTRANSFERASE: 46.67 u/L
  ALBUMIN: 4.47 G/DL
  ALKALINE PHOSPHATASE: 355.33 u/L
  ASPARTATE AMINOTRANSFERASE: 67.33 u/L
  BLOOD UREA NITROGEN: 15 mg/dL
  CARBON DIOXIDE: 26.67 mmol/L
  CHLORIDE: 101 MEQ/L
  CHOLESTEROL: 59 mg/dL
  CREATINE PHOSPHOKINASE: 203.33 u/L
  CREATININE: 0.17 mg/dL
  GLUCOSE: 169.67 mg/dL
  LACTATE DEHYDROGENASE: 99.33 u/L
  LIPASE: 9 u/L
  PHOSPHORUS: 12.5 mg/dL
  POTASSIUM: 7.1 MEQ/L
  SODIUM: 145.87 MEQ/L
  TOTAL BILIRUBIN: 0.2 mg/dL
  TOTAL PROTEIN: 6.37 G/DL
  URIC ACID: 1.77 mg/dL
